Source: the supplement of paper PMC11579375

Experiments:
Test in all cases: area under the viability dose-response curve (AUC) (AUC (arbitrary units, max 500 = no viability loss)); higher = less sensitive (higher viability)
Settings in all cases: exposure time: 120 h; concentration range: 0.1 nM - 10 µM, 6 doses
27F1 = system: 27F1 (fetal-I hepatoblastoma organoid with intermediate liver markers)
Procedure: (§1)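 Patient-derived hepatoblastoma tumor organoids (about 50 organoids per well, 384-well plates, medium with 5% BME) were treated with the PMC pediatric cancer drug library. Each drug was tested in duplicate at 6 concentrations (0.1 nM to 10 µM, 10-fold steps).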

10F2 = system: 10F2 (fetal-II hepatoblastoma organoid with high liver markers)
Procedure: as §1

17E = system: 17E (embryonal-type hepatoblastoma organoid)
Procedure: as §1

13F2 = system: 13F2 (fetal-II hepatoblastoma organoid with high liver markers)
Procedure: as §1

3E = system: 3E (embryonal-type hepatoblastoma organoid)
Procedure: as §1

13E = system: 13E (embryonal-type hepatoblastoma organoid)
Procedure: as §1

17F1 = system: 17F1 (fetal-I hepatoblastoma organoid with intermediate liver markers)
Procedure: as §1

8F1 = system: 8F1 (fetal-I hepatoblastoma organoid with intermediate liver markers)
Procedure: as §1

22E = system: 22E (embryonal-type hepatoblastoma organoid)
Procedure: as §1

135F2 = system: 135F2 (fetal-II hepatoblastoma organoid with high liver markers)
Procedure: as §1

96F1 = system: 96F1 (fetal-I hepatoblastoma organoid with intermediate liver markers)
Procedure: as §1

| SMILES | area under the viability dose-response curve (27F1) | area under the viability dose-response curve (10F2) | area under the viability dose-response curve (17E) | area under the viability dose-response curve (13F2) | area under the viability dose-response curve (3E) | area under the viability dose-response curve (13E) | area under the viability dose-response curve (17F1) | area under the viability dose-response curve (8F1) | area under the viability dose-response curve (22E) | area under the viability dose-response curve (135F2) | area under the viability dose-response curve (96F1) |
| --- | --- | --- | --- | --- | --- | --- | --- | --- | --- | --- | --- |
| O=C(/C=C/c1cccc(S(=O)(=O)Nc2ccccc2)c1)NO [Belinostat] | 418 | 365 | 367 | 359 | 355 | 401 | 437 | 434 | 425 | 386 | 409 |
| O=c1nc(N2CCOCC2)oc2c(-c3cccc4c3sc3ccccc34)cccc12 [LTURM34] | > 500 | 393 | 487 | 484 | 486 | 473 | 490 | 489 | 433 | 467 | 497 |
| CC(C)C[C@H](NC(=O)CNC(=O)c1cc(Cl)ccc1Cl)B(O)O [Ixazomib] | 282 | 246 | 247 | 264 | 256 | 282 | 278 | 287 | 321 | 261 | 294 |
| COCCNCc1ccc(-c2cc3nccc(Oc4ccc(NC(=O)C5(C(=O)Nc6ccc(F)cc6)CC5)cc4F)c3s2)nc1 [Sitravatinib] | 442 | 374 | 375 | 425 | 417 | 436 | 457 | 441 | 431 | 432 | 433 |
| Cc1c(C(=O)Nc2ccc(N3C[C@@H](C)O[C@@H](C)C3)nc2)cccc1-c1ccc(OC(F)(F)F)cc1 [Sonidegib] | > 500 | 409 | 466 | 470 | 477 | 485 | 477 | 477 | 469 | 470 | 465 |
| Nc1ccn([C@@H]2O[C@H](CO)[C@@H](O)C2(F)F)c(=O)n1 [Gemcitabine] | 310 | 212 | 257 | 209 | 241 | 339 | 273 | 433 | 331 | 237 | 273 |
| CNC(=O)c1cccc(-c2ccc3c(N4CCOC[C@@H]4C)nc(N4CCOC[C@@H]4C)nc3n2)c1 [Vistusertib] | 407 | 324 | 392 | 342 | 376 | 409 | 498 | 470 | 426 | 407 | 460 |
| Cc1cc(Nc2ncc(Cl)c(Nc3ccccc3S(=O)(=O)C(C)C)n2)c(OC(C)C)cc1C1CCNCC1 [Ceritinib] | 432 | 356 | 368 | 349 | 351 | 381 | 446 | 441 | 375 | 373 | 413 |
| Cc1c(Cn2c(C)nc3c(C(=O)O)cc(N4CCOCC4)cc32)cccc1C(F)(F)F | 498 | 500 | 495 | 488 | 499 | 488 | 498 | > 500 | 495 | > 500 | 497 |
| CC[C@@]1(O)C(=O)OCc2c1cc1n(c2=O)Cc2cc3ccccc3nc2-1 [Camptothecin] | 255 | 219 | 263 | 174 | 201 | 304 | 277 | 295 | 361 | 227 | 208 |
| CC[C@H](Nc1ncnc2[nH]cnc12)c1nc2cccc(F)c2c(=O)n1-c1ccccc1 [Idelalisib] | 492 | 492 | 488 | 496 | 491 | 497 | 495 | 484 | 492 | > 500 | > 500 |
| Cn1nccc1Nc1nccc(-c2ccn([C@H](CO)c3ccc(Cl)c(F)c3)c(=O)c2)n1 [Ravoxertinib] | > 500 | 331 | 475 | 354 | 494 | 470 | > 500 | > 500 | 468 | 380 | 483 |
| Nc1ccn([C@@H]2O[C@H](CO)[C@@H](O)[C@@H]2O)c(=O)n1 [Cytarabine] | 427 | 481 | 425 | 377 | 370 | 425 | 393 | 479 | 433 | 403 | 378 |
| C[C@@H]1CN(C(=O)c2ccc(NC(=O)c3cc(O[C@H](C)c4c(Cl)ccc(F)c4Cl)c(N)nn3)cc2)C[C@H](C)N1 [Ensartinib] | 468 | 449 | 411 | 410 | 403 | 422 | 483 | 444 | 393 | 449 | 456 |
